In patent US11833232B2, “Deodorant compositions with natural wax” (The Procter & Gamble Company, priority 2020, dated 2023):
Counter-ions that a name gives are not always drawn.

Key:
[1] = test system: two key underarm bacteria strains; assay: Raw material microbial inhibition, verdict in words over both strains; assay type: cell-based, Corynebacterium mucofaciens; Staphylococcus epidermidis
Method: The Tier 1 Anaerobic MIC Assay test method to generate the data of Table 2 is described below.
(§1) Tier 1 Anaerobic MIC Assay
The data in Table 2 above was generated with the following test method.
3. Microbial Strains • Staphylococcus epidermidis (clinical isolate) • Corynebacterium mucofaciens (clinical isolate)
4. Test Procedure • Inoculum Preparation • Prior to testing streak organisms for isolation on BHI with 1% Tween 80 plates, wrap with parafilm and place in 37° C. incubator. When isolated colonies appear remove one representative colony from each plate and place each in 5 ml of BHI with 1% Tween 80 media. Incubate at 37° C. with shaking overnight. Inoculate 20 ml BHI with 1% Tween 80 (per 96 deep well plate to be tested) with 20 ul of the overnight culture (1-1000 dilution). • Master Plate Preparation • Compounds/formulations to be tested are diluted across a 96 deep well plate as shown below in Table 3 (for a 1% stock solution). […] 800 ul each 1% stock solution+positive control are added to wells C1 through H1. […] 400 ul is then removed from #1 well added to the #2 well and mixed. This is then continued across the plate resulting in a 50% dilution between wells across the plate (this can be easily accomplished with an automatic 8 channel Matrix pipette set to withdraw, dispense and mix).
In row A of a 96 deep well plate pipette 180 ul of sterile BHI with 1% Tween 80 as a negative growth control. All other wells receive 180 ul of inoculum. From the master plate introduce 20 ul to the corresponding row in the test plate using an 8-channel pipette. Loaded plates are placed on a plate shaker in the 37° C. incubator and incubated overnight. The next day read the O.D. 600 on a plate reader. The MIC is the last well from the right that has no bacterial growth.

C. mucofaciens = assay: Tier 1 Anaerobic MIC Assay; assay type: cell-based, Corynebacterium mucofaciens (clinical isolate); details: raw material, 37° C. overnight, O.D. 600
Text: as §1
(§2) The data in Table 2 above was generated with the following test method. The purpose of this assay is to determine if a compound or formulation has an antimicrobial effect in vitro.
(§3) It is understood that when not specifically noted in this procedure: • a) All materials, reagents and equipment required for this procedure are of appropriate design and condition of cleanliness and/or sterility as determined by their intended use. • b) The operator has been trained in aseptic technique and has been qualified to perform the procedure and accurately interpret the results. • c) All media required for this procedure was manufactured by a reputable commercial source egg. Difco, Merck etc. and has been stored and prepared as per manufacturer's instructions. • d) All routine laboratory controls, including but not limited to, media function and growth promotion tests, verification of sterility and use of positive and negative controls are being conducted.
(§4) Procedure: (All procedures performed in anaerobic chamber except where noted)
1. […]
(§5) In row A of a 96 deep well plate pipette 180 ul of sterile BHI with 1% Tween 80 as a negative growth control. […] The next day read the O.D. 600 on a plate reader. […]

S. epidermidis = assay: Tier 1 Anaerobic MIC Assay; assay type: cell-based, Staphylococcus epidermidis (clinical isolate); details: raw material, 37° C. overnight, O.D. 600
Text: as §1, §2, §3, §4
1. […]
as §5

In the case of `Cc1cc(CC(C)CC(C)(C)C)n(O)c(=O)c1.NCCO` (stereo not drawn) [100 mg/ml piroctone olamine in H2O, piroctone olamine], the “performance against the bacteria as raw materials (in words)” value (“performance against the bacteria” for short) [1] is reported as “perform particularly well”, the “microbial inhibition concentration (MIC)” value (C. mucofaciens) is reported as less than 5 ppm and the “microbial inhibition concentration (MIC)” value (S. epidermidis) is reported as 10 ppm.

For `CCOC(=O)CC(O)(CC(=O)OCC)C(=O)OCC` [100% Triethyl citrate, Triethyl citrate], the “performance against the bacteria” value [1] was “performing well”.

In the case of `O=C([O-])[O-].[Ca+2]` [Ca Carbonate 50 mg/ml H2O ins, calcium carbonate], the “performance against the bacteria” value [1] is reported as “performing moderately well”.

For `CC(C)=CCCC(C)=CC=O` [Citral 96% ETOH, Citral], the “performance against the bacteria” value [1] was “performing well”.

For `COC(=O)CCC(=O)OC` [Dimethyl Succinate 98% ETOH, Dimethyl Succinate], the “performance against the bacteria” value [1] was “performing well”.

For `C=CCc1ccc(O)c(OC)c1` [Eugenol 99% ETOH, Eugenol], the “performance against the bacteria” value [1] was “performing well”.

In the case of `N=C(N)c1ccc(OCCCCCCOc2ccc(C(=N)N)cc2)cc1` [Hexamidine 36 mg/ml H2O, Hexamidine], the “performance against the bacteria” value [1] is reported as “perform particularly well”, the “microbial inhibition concentration (MIC)” value (C. mucofaciens) is reported as less than 2 ppm and the “microbial inhibition concentration (MIC)” value (S. epidermidis) is reported as 7 ppm.

With `C=CCCCCCCCCC(=O)N[C@@H](Cc1ccccc1)C(=O)O` [Sepiwhite 40 mg/ml H2O ins] the “performance against the bacteria” value [1] was “performing well”.
